In patent US11147819B2, “EZH2 inhibitors for treating cancer” (Epizyme, Inc., priority 2016, dated 2021):

Tests used:
KARPAS-422 = experiment: Combination study with tazemetostat (synergy by IC50 shifts or Calcusyn); type: cell-based; conditions: KARPAS-422 (EZH2 mutant)
Method: (§1) Synergy was assessed by IC50 shifts or Calcusyn. [table]

TMD8 = experiment: as above; type: cell-based; conditions: TMD8 (ABC)
Method: as §1

SU-DHL5 = experiment: as above; type: cell-based; conditions: SU-DHL-5 (EZH2 wt)
Method: as §1

B-cell lymphomas = conditions: phase I; patients with B-cell lymphomas; cited from earlier work
DLBCL cell lines = experiment: RNAseq GSEA for plasma and memory cell gene sets; type: cell-based; conditions: 1 μM TAZ for 4 days; KARPAS-422, SU-DHL-6, Farage, SU-DHL-5, TMD8, Toledo
Method: FIG. 3. […] RNAseq data from KARPAS-422 (EZH2 mutant GCB), SU-DHL-6 (EZH2 mutant GCB) Farage (EZH2 wt GCB), SU-DHL-5 (EZH2 wt GCB), TMD8 (EZH2 wt ABC) and Toledo (EZH2 wt ABC) treated with 1 μM TAZ for 4 days was analyzed using GSEA (Broad Institute) for the presence of plasma and memory cell gene sets.

IκBα in SU-DHL-5 cells = experiment: IκBα degradation in response to CD40L (FIG. 7B); type: cell-based; conditions: 4-day treatment, CD40L 500 ng/mL
Oral bioavailability = conditions: in vivo
Cells = experiment: Apoptosis, single agents or combination, 10 days (FIG. 6B); type: cell-based
Method: (§2) FIG. 6. A) Cells were treated for 7 days with single agents or in combination. […] This effect is not seen in the ABC cell line, TMD8. B) Cells were treated for 10 days with single agents (100 ng/mL CD40L) or in combination.

[1] = test system: PRDM1 (BLIMP1) in GCB lines; experiment: PRDM1 (BLIMP1) expression by qPCR or western blot; type: cell-based; conditions: all GCB lines; 7 days with 1 μM TAZ vs DMSO
Method: (§3) FIG. 4. Cells were treated for 7 days with 1 μM TAZ or DMSO.

PRDM1 (BLIMP1) in TMD8 = experiment: PRDM1 (BLIMP1) expression by qPCR or western blot; type: cell-based; conditions: ABC cell line TMD8; 7 days with 1 μM TAZ vs DMSO
Method: as §3

[2] = test system: SU-DHL-5 cell line xenograft; experiment: Cell line xenograft model, tumor growth; type: in vivo; conditions: SU-DHL-5 xenograft model
Text: (§4) FIG. 1. A) 14 evaluable NHL patients treated (V. Ribrag ASH 2015): 13 WT+1 mutant by cobas® EZH2 Mutation Test (in development, Roche Molecular Systems, Inc.)*Cheson Criteria. B) EZH2 mutant cell lines are more sensitive to TAZ in vitro. […] Cell of origin of cell lines determined by RNAseq analysis (Scott et al. Blood 2014).

[3] = test system: OCI-LY19 cell line xenograft; experiment: Cell line xenograft model, tumor growth; type: in vivo
Text: as §4

GCB lines = experiment: Combination of CD40L with TAZ (FIG. 5); type: cell-based
[4] = test system: H3K27 trimethylation in KARPAS-422; experiment: H3K27 trimethylation inhibition (FIG. 6C); type: cell-based; conditions: KARPAS-422, mutant EZH2 cell line
Method: as §2

[5] = test system: PRDM1 in SU-DHL-5 (wt EZH2); experiment: PRDM1 expression after co-treatment with TAZ and CD40L (FIG. 7A); type: cell-based; conditions: 14-day co-treatment

With `COc1cc(Nc2ncc(F)c(Nc3ccc4c(n3)NC(=O)C(C)(C)O4)n2)cc(OC)c1OC` [Tamatinib] the “Combination effect with TAZ (FIG. 5)” value (KARPAS-422) was “Synergy”, the “Combination effect with TAZ (FIG. 5)” value (TMD8) was “Synergy” and the “Combination effect with TAZ (FIG. 5)” value (SU-DHL5) was “Synergy”.

In the case of `CCN(c1cc(-c2ccc(CN3CCOCC3)cc2)cc(C(=O)NCc2c(C)cc(C)[nH]c2=O)c1C)C1CCOCC1` [tazemetostat], the clinical response (B-cell lymphomas) is given as “objective clinical responses”, the “plasma cell and memory cell gene sets (RNAseq, GSEA)” value (DLBCL cell lines) is given as “induces a gene set that is heavily enriched for plasma cell and memory cell genes” and the “IκBα degradation in response to CD40L” value (IκBα in SU-DHL-5 cells) is given as “does not affect”. The oral bioavailability (Oral bioavailability) was “orally bioavailable”, the “apoptosis, single agent compared to DMSO” value (Cells) was “significant increase of apoptosis” and the “PRDM1 (BLIMP1) expression” value [1] was “increase”. For the same molecule, the “PRDM1 (BLIMP1) expression” value (PRDM1 (BLIMP1) in TMD8) was “slight decrease”, the “tumor growth in response to TAZ treatment” value [2] was “tumor growth inhibition” and the “tumor growth in response to TAZ treatment” value [3] was “tumor growth inhibition”.

B1: CD40L: recombinant CD40L, a B-cell co-stimulatory molecule (protein, UniProt P29965 113-261, looked up)
CD40 ligand, soluble form: MQKGDQNPQIAAHVISEASSKTTSVLQWAEKGYYTMSNNLVTLENGKQLTVKRQGLYYIYAQVTFCSNREASSQAPFIASLCLKSPGRFERILLRAANTHSSAKPCGQQSIHLGGVFELQPGASVFVNVTDPSQVSHGTGFTSFGLLKL
With B1 the “Combination effect with TAZ (FIG. 5)” value (TMD8) was “slight synergy”, the “Combination effect with TAZ (FIG. 5)” value (GCB lines) was “antagonism” and the “apoptosis, combination with TAZ compared to TAZ single agent” value (Cells; 100 ng/mL CD40L) was “significant decrease of apoptosis”. The “effect on TAZ inhibition of H3K27 trimethylation” value [4] was “does not affect” and the “PRDM1 expression, co-treatment with TAZ” value [5] was “up-regulation of PRDM1”.
